# From patent US11753489B2, “Nanoparticles using anionic polymer, preparation method and composition thereof” (IMGT CO, LTD., priority 2020, dated 2023)
# Structures can show the parent of a compound that is named as a salt.
# Tested on: Huh7 liver cancer cells
# Assay: in vitro cytotoxicity evaluation (viability analysis)
# Assay type: cell-based
# Details: FIG. 7
# Procedure: Viability analysis was performed on Huh7 liver cancer cells to evaluate the toxicity of the prepared nanoparticles. Three groups were evaluated: doxorubicin hydrochloride (dox), particles loaded with doxorubicin (032d), and particles not loaded with doxorubicin (032).
smiles,measurement,value
COc1cccc2c1C(=O)c1c(O)c3c(c(O)c1C2=O)C[C@@](O)(C(=O)CO)C[C@@H]3O[C@H]1C[C@H](N)[C@H](O)[C@H](C)O1 [doxorubicin hydrochloride],cell viability / cancer cell killing effect,cancer cell killing effect in a concentration-dependent manner
